Data: the supplement of paper PMC10307832

What was measured:
Assay in all cases: relative viability (nuclei count vs DMSO), 5 days (fraction); higher = more cells survive
UMC-11 = test system: UMC-11
Outline: (§1)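 Nuclei were stained with Hoechst during a one-step fixation (final 0.05% Triton X-100, 1% formaldehyde, 1 ug/ml Hoechst) carried out 5 days after dosing, then counted on 4× images. The cells, lung cancer lines in 1536-well plates, had been dosed by pin tool the day after seeding with one drug alone or a fixed anchor-drug dose plus five library-drug doses (not always all listed) in √10 steps. Relative viability is the nuclei count in treated wells divided by that in vehicle wells, and each value is the median of duplicate plates.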

SK-LU-1 = test system: SK-LU-1
Outline: as §1

NCI-H460 = test system: NCI-H460
Outline: as §1

NCI-H1944 = test system: NCI-H1944
Outline: as §1

NCI-H1666 = test system: NCI-H1666
Outline: as §1

HCC-78 = test system: HCC-78
Outline: as §1

NCI-H1792 = test system: NCI-H1792
Outline: as §1

HCC-366 = test system: HCC-366
Outline: as §1

LC-2-ad = test system: LC-2-ad
Outline: as §1

HOP-62 = test system: HOP-62
Outline: as §1

A-427 = test system: A-427
Outline: as §1

EPLC-272H = test system: EPLC-272H
Outline: as §1

LU99A = test system: LU99A
Outline: as §1

LXF-289 = test system: LXF-289
Outline: as §1

NCI-H2170 = test system: NCI-H2170
Outline: as §1

NCI-H2009 = test system: NCI-H2009
Outline: as §1

NCI-H1793 = test system: NCI-H1793
Outline: as §1

COR-L 105 = test system: COR-L 105
Outline: as §1

NCI-H1915 = test system: NCI-H1915
Outline: as §1

NCI-H2085 = test system: NCI-H2085
Outline: as §1

With `O=c1cc(-c2cccc3c2Sc2ccccc2S3)oc(N2CCOCC2)c1` + CC1(C)CCC(c2ccc(Cl)cc2)=C(CN2CCN(c3ccc(C(=O)NS(=O)(=O)c4ccc(N[C@H](CCN5CCOCC5)CSc5ccccc5)c(S(=O)(=O)C(F)(F)F)c4)cc3)CC2)C1 [Navitoclax] (partner 0.5 µM) the relative viability (UMC-11; first compound 0.08 µM) was 0.326, the relative viability (UMC-11; first compound 0.253 µM) was 0.319 and the relative viability (UMC-11; first compound 0.8 µM) was 0.32. For the same compound, the relative viability (UMC-11; first compound 2.53 µM) was 0.304, the relative viability (UMC-11; first compound 8 µM) was 0.353 and the relative viability (SK-LU-1; first compound 0.08 µM) was 0.684. It also gave a relative viability (SK-LU-1; first compound 0.253 µM) of 0.924, a relative viability (SK-LU-1; first compound 0.8 µM) of 0.787 and a relative viability (SK-LU-1; first compound 2.53 µM) of 1.02. It also gave a relative viability (SK-LU-1; first compound 8 µM) of 1.09, a relative viability (NCI-H460; first compound 0.08 µM) of 1.24 and a relative viability (NCI-H460; first compound 0.8 µM) of 1.42. The relative viability (NCI-H460; first compound 2.53 µM) was 1.23, the relative viability (NCI-H1944; first compound 0.08 µM) was 1 and the relative viability (NCI-H1944; first compound 0.253 µM) was 1.11. It also gave a relative viability (NCI-H1944; first compound 0.8 µM) of 1.06, a relative viability (NCI-H1944; first compound 8 µM) of 1.16 and a relative viability (NCI-H1666; first compound 0.08 µM) of 0.988. The relative viability (NCI-H1666; first compound 0.253 µM) was 0.976, the relative viability (NCI-H1666; first compound 0.8 µM) was 0.952 and the relative viability (NCI-H1666; first compound 2.53 µM) was 0.868. The relative viability (NCI-H1666; first compound 8 µM) was 0.799, the relative viability (HCC-78; first compound 0.08 µM) was 0.806 and the relative viability (HCC-78; first compound 0.253 µM) was 0.978. The relative viability (HCC-78; first compound 0.8 µM) was 0.767, the relative viability (HCC-78; first compound 2.53 µM) was 0.779 and the relative viability (HCC-78; first compound 8 µM) was 0.816. It also gave a relative viability (NCI-H1792; first compound 0.253 µM) of 0.761, a relative viability (NCI-H1792; first compound 0.8 µM) of 0.471 and a relative viability (NCI-H1792; first compound 2.53 µM) of 0.555. It also gave a relative viability (NCI-H1792; first compound 8 µM) of 0.689, a relative viability (HCC-366; first compound 0.08 µM) of 0.987 and a relative viability (HCC-366; first compound 0.253 µM) of 1.19. The relative viability (HCC-366; first compound 0.8 µM) was 1.07, the relative viability (HCC-366; first compound 2.53 µM) was 0.98 and the relative viability (HCC-366; first compound 8 µM) was 0.996. It also gave a relative viability (LC-2-ad; first compound 0.08 µM) of 0.363, a relative viability (LC-2-ad; first compound 0.253 µM) of 0.666 and a relative viability (LC-2-ad; first compound 0.8 µM) of 0.375. It also gave a relative viability (LC-2-ad; first compound 2.53 µM) of 0.421, a relative viability (LC-2-ad; first compound 8 µM) of 0.403 and a relative viability (HOP-62; first compound 0.08 µM) of 1.09. For the same compound, the relative viability (HOP-62; first compound 0.253 µM) was 1.43, the relative viability (HOP-62; first compound 0.8 µM) was 1.21 and the relative viability (HOP-62; first compound 2.53 µM) was 0.902. For the same compound, the relative viability (HOP-62; first compound 8 µM) was 1.28, the relative viability (A-427; first compound 0.08 µM) was 0.962 and the relative viability (A-427; first compound 0.253 µM) was 0.909. The relative viability (A-427; first compound 0.8 µM) was 1.07, the relative viability (A-427; first compound 2.53 µM) was 0.906 and the relative viability (A-427; first compound 8 µM) was 0.934. It also gave a relative viability (EPLC-272H; first compound 0.08 µM) of 1.09, a relative viability (EPLC-272H; first compound 0.253 µM) of 1.17 and a relative viability (EPLC-272H; first compound 0.8 µM) of 1.17. The relative viability (EPLC-272H; first compound 2.53 µM) was 1.09, the relative viability (EPLC-272H; first compound 8 µM) was 1.2 and the relative viability (LU99A; first compound 0.08 µM) was 0.809. The relative viability (LU99A; first compound 0.253 µM) was 0.918, the relative viability (LU99A; first compound 0.8 µM) was 0.84 and the relative viability (LU99A; first compound 2.53 µM) was 0.786. It also gave a relative viability (LU99A; first compound 8 µM) of 0.958, a relative viability (LXF-289; first compound 0.08 µM) of 0.996 and a relative viability (LXF-289; first compound 0.253 µM) of 1.06. It also gave a relative viability (LXF-289; first compound 0.8 µM) of 1.03, a relative viability (LXF-289; first compound 2.53 µM) of 0.951 and a relative viability (LXF-289; first compound 8 µM) of 1. For the same compound, the relative viability (NCI-H2170; first compound 0.08 µM) was 0.693, the relative viability (NCI-H2170; first compound 0.253 µM) was 0.749 and the relative viability (NCI-H2170; first compound 0.8 µM) was 0.642. The relative viability (NCI-H2170; first compound 2.53 µM) was 0.55, the relative viability (NCI-H2170; first compound 8 µM) was 0.519 and the relative viability (NCI-H2009; first compound 0.08 µM) was 1.22. It also gave a relative viability (NCI-H2009; first compound 0.253 µM) of 1.2, a relative viability (NCI-H2009; first compound 0.8 µM) of 1.21 and a relative viability (NCI-H2009; first compound 2.53 µM) of 1.05. For the same compound, the relative viability (NCI-H2009; first compound 8 µM) was 1.11, the relative viability (NCI-H1793; first compound 0.08 µM) was 0.307 and the relative viability (NCI-H1793; first compound 0.253 µM) was 0.515. For the same compound, the relative viability (NCI-H1793; first compound 0.8 µM) was 0.344, the relative viability (NCI-H1793; first compound 2.53 µM) was 0.362 and the relative viability (NCI-H1793; first compound 8 µM) was 0.356. The relative viability (COR-L 105; first compound 0.08 µM) was 0.649, the relative viability (COR-L 105; first compound 0.253 µM) was 0.849 and the relative viability (COR-L 105; first compound 0.8 µM) was 0.678. It also gave a relative viability (COR-L 105; first compound 2.53 µM) of 0.642, a relative viability (COR-L 105; first compound 8 µM) of 0.993 and a relative viability (NCI-H1915; first compound 0.08 µM) of 0.776. The relative viability (NCI-H1915; first compound 0.253 µM) was 0.847, the relative viability (NCI-H1915; first compound 0.8 µM) was 0.795 and the relative viability (NCI-H1915; first compound 2.53 µM) was 0.787. For the same compound, the relative viability (NCI-H1915; first compound 8 µM) was 0.872, the relative viability (NCI-H2085; first compound 0.08 µM) was 1.15 and the relative viability (NCI-H2085; first compound 0.253 µM) was 1.31. The relative viability (NCI-H2085; first compound 0.8 µM) was 1.17, the relative viability (NCI-H2085; first compound 2.53 µM) was 1.05 and the relative viability (NCI-H2085; first compound 8 µM) was 1.07.
